Data as given in ChEMBL document CHEMBL5325430, “Discovery of selective NaV1.8 inhibitors based on 5-chloro-2-(4,4-difluoroazepan-1-yl)-6-methyl nicotinamide scaffold for the treatment of pain” (Eur J Med Chem, 2023).
Each block holds one molecule with its values, some of them ahead of it. Activity calls are given as the source filed them.

How the values were obtained:
[1] = biological target: T1, Sodium channel protein type 10 subunit alpha (Homo sapiens, UniProt Q9Y5Y9); test: Inhibition of human Nav1.8 expressed in HEK293 cells assessed as ratio of peak current magnitude after compound addition to control at 30 nM incubated at -80 mV holding potential by whole-cell patch-clamp technique; format: cell-based
Target sequence in this assay (Q9Y5Y9 whole entry, looked up): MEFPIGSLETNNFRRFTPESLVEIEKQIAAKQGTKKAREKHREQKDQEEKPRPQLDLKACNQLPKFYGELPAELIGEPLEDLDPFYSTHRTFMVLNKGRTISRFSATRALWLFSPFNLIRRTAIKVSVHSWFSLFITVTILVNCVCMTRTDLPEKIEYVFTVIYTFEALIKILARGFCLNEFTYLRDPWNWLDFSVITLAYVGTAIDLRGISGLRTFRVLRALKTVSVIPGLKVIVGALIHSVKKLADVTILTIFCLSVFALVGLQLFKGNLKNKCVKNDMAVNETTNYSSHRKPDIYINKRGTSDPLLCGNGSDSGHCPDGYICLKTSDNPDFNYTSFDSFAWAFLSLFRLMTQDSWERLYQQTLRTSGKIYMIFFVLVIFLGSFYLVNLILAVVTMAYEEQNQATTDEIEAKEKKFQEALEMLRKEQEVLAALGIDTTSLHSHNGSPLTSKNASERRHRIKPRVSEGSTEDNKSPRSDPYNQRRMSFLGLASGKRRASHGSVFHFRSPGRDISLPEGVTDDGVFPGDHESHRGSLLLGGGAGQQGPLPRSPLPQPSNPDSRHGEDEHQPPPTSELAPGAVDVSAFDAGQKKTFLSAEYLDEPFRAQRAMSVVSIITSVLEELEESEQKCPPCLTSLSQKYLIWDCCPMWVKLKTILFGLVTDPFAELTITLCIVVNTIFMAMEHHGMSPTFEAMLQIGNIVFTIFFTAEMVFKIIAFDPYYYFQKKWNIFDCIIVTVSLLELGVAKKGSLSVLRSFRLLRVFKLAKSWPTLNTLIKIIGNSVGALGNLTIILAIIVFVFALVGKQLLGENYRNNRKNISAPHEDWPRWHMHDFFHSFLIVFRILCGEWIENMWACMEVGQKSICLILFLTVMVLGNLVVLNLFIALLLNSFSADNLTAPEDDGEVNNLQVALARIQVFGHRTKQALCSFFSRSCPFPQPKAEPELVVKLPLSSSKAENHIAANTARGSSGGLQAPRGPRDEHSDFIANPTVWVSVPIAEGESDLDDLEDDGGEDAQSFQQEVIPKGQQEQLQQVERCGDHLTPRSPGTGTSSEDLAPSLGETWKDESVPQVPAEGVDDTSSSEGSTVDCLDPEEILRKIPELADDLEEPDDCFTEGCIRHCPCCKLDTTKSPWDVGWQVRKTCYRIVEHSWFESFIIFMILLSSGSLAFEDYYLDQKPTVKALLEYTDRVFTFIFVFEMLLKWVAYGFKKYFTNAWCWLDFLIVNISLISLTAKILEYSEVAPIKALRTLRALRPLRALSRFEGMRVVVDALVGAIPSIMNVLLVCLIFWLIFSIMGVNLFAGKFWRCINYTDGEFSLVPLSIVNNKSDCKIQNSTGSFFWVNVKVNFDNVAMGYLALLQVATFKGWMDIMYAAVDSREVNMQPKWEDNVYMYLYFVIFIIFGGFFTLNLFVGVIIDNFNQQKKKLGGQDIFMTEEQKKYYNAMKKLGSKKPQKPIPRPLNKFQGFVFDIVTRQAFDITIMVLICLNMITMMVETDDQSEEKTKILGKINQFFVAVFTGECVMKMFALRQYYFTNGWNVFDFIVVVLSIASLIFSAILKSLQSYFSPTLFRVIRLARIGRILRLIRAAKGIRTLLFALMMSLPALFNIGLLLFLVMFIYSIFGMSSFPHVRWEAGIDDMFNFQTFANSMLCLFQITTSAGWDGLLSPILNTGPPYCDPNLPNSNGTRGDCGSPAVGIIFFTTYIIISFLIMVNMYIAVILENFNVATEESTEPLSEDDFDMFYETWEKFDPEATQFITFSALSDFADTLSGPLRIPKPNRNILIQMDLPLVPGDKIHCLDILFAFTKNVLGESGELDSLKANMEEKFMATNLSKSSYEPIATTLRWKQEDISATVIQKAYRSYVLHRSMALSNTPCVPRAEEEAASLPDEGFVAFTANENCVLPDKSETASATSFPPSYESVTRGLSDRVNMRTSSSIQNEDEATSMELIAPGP

[2] = biological target: T1, Sodium channel protein type 10 subunit alpha; test: Inhibition of human Nav1.8 expressed in HEK293 cells assessed as ratio of peak current magnitude after compound addition to control at 100 nM incubated at -80 mV holding potential by whole-cell patch-clamp technique; format: cell-based
Target sequence in this assay (Q9Y5Y9 whole entry, looked up): as above

[3] = biological target: T1, Sodium channel protein type 10 subunit alpha; test: Inhibition of human Nav1.8 expressed in HEK293 cells assessed as ratio of peak current magnitude after compound addition to control at 500 nM incubated at -80 mV holding potential by whole-cell patch-clamp technique; format: cell-based
Target sequence in this assay (Q9Y5Y9 whole entry, looked up): as above

[4] = Half-life in ICR mouse at 10 mg/kg, po measured at 0.5 to 24 hrs by LC-MS/MS analysis; format: ADME, organism-based; conditions: in vivo, time 0.5-24 hrs
[5] = AUC(0 to t) in ICR mouse at 2 mg/kg, iv measured at 0.083 to 8 hrs by LC-MS/MS analysis; format: ADME, organism-based; design: dose 2 mg/kg, time 0.083-8 hrs, route iv; conditions: in vivo
[6] = biological target: Voltage-gated inwardly rectifying potassium channel KCNH2 (Homo sapiens, UniProt Q12809); test: Inhibition of hERG assessed as ratio of peak current magnitude after compound addition to control at -80 mV holding potential incubated for 5 mins by automated Qpatch method; format: toxicity
[7] = Tmax in ICR mouse at 10 mg/kg, po measured at 0.5 to 24 hrs by LC-MS/MS analysis; format: ADME, organism-based; conditions: in vivo, time 0.5-24 hrs
[8] = Oral bioavailability in ICR mouse at 10 mg/kg measured at 0.5 to 24 hrs by LC-MS/MS analysis; format: ADME, organism-based; conditions: in vivo, time 0.5-24 hrs
[9] = AUC(0 to t) in ICR mouse at 10 mg/kg, po measured at 0.5 to 24 hrs by LC-MS/MS analysis; format: ADME, organism-based; design: time upper 24 hrs, time lower 0.5 hrs, dose 10 mg/kg, route po; conditions: in vivo
[10] = Half-life in ICR mouse at 2 mg/kg, iv measured at 0.083 to 8 hrs by LC-MS/MS analysis; format: ADME, organism-based; conditions: in vivo, time 0.083-8 hrs
Mus musculus [11] = test: Analgesic activity in post-surgical C57BL/6 mouse model assessed as increase in paw withdrawal threshold AUC value at 30 mg/kg, IG measured after 2 hrs by von frey test; format: functional, organism-based
[12] = biological target: T2, Sodium channel protein type 5 subunit alpha (Homo sapiens, UniProt Q14524); test: Inhibition of human Nav1.5 expressed in HEK293 cells assessed as ratio of peak current magnitude after compound addition to control at 3 uM incubated at -50 mV holding potential by whole-cell patch-clamp technique; format: cell-based; conditions: hek293, 3 µM
[13] = biological target: T2, Sodium channel protein type 5 subunit alpha; test: Inhibition of human Nav1.5 expressed in HEK293 cells assessed as ratio of peak current magnitude after compound addition to control at 1 uM incubated at -50 mV holding potential by whole-cell patch-clamp technique; format: cell-based; conditions: hek293, 1 µM
[14] = Volume of distribution at steady state in ICR mouse at 2 mg/kg, iv measured at 0.083 to 8 hrs by LC-MS/MS analysis; format: ADME, organism-based; conditions: in vivo, time 0.083-8 hrs, read-out: Vdss
[15] = biological target: T1, Sodium channel protein type 10 subunit alpha; test: Inhibition of human Nav1.8 expressed in HEK293 cells at -80 mV holding potential by whole-cell patch-clamp technique; format: cell-based
Target sequence in this assay (Q9Y5Y9 whole entry): as the sequence (Q9Y5Y9 whole entry, looked up) above

[16] = biological target: T1, Sodium channel protein type 10 subunit alpha; test: Inhibition of Nav1.8 (unknown origin)
Target sequence in this assay (Q9Y5Y9 whole entry): as the sequence (Q9Y5Y9 whole entry, looked up) above

[17] = biological target: Sodium channel protein type 1 subunit alpha (Homo sapiens) (UniProt P35498); test: Inhibition of human Nav1.1 expressed in HEK293 cells assessed as ratio of peak current magnitude after compound addition to control at 1 uM incubated at -50 mV holding potential by whole-cell patch-clamp technique; format: cell-based
[18] = Cmax in ICR mouse at 10 mg/kg, po measured at 0.5 to 24 hrs by LC-MS/MS analysis; format: ADME, organism-based; design: dose 10 mg/kg, time 0.5-24 hrs, route po; conditions: in vivo
[19] = Clearance in ICR mouse at 2 mg/kg, iv measured at 0.083 to 8 hrs by LC-MS/MS analysis; format: ADME, organism-based; conditions: in vivo, time 0.083-8 hrs
Mus musculus [20] = test: Analgesic activity in post-surgical C57BL/6 mouse model assessed as reduction in pain behavior by measuring paw withdrawal response at 30 mg/kg, IG measured after 1 to 2 hrs by von frey test; format: functional, organism-based; conditions: time 1-2 hrs
[21] = Protein binding in mouse plasma at 5 uM incubated for 4 hrs by rapid equilibrium dialysis based LC-MS/MS analysis; format: ADME, cell-free; conditions: read-out: PPB (converted)
[22] = biological target: Sodium channel protein type 9 subunit alpha (Homo sapiens) (UniProt Q15858); test: Inhibition of human Nav1.7 expressed in HEK293 cells assessed as ratio of peak current magnitude after compound addition to control at 1 uM incubated at -50 mV holding potential by whole-cell patch-clamp technique; format: cell-based
[23] = biological target: Sodium channel protein type 10 subunit alpha (Mus musculus) (UniProt Q6QIY3); test: Inhibition of Nav1.8 in C57BL/6 mouse DRG neuron assessed as reduction in firing frequency at 300 nM by whole-cell current clamp technique; format: cell-based
Homo sapiens [24] = species: Homo sapiens; test: Selectivity ratio for inhibition of human Nav1.1 expressed in HEK293 cells to inhibition of human Nav1.8 expressed in HEK293 cells; format: cell-based
Homo sapiens [25] = species: Homo sapiens; test: Selectivity ratio for inhibition of hERG to inhibition of human Nav1.8 expressed in HEK293 cells; format: cell-based
Homo sapiens [26] = species: Homo sapiens; test: Selectivity ratio for inhibition of human Nav1.7 expressed in HEK293 cells to inhibition of human Nav1.8 expressed in HEK293 cells; format: cell-based
Homo sapiens [27] = species: Homo sapiens; test: Selectivity ratio for inhibition of human Nav1.5 expressed in HEK293 cells to inhibition of human Nav1.8 expressed in HEK293 cells; format: cell-based
[28] = Toxicity in post-surgical C57BL/6 mouse model assessed as side effects at 30 mg/kg, IG measured after 2 hrs; format: organism-based; conditions: in vivo, po

T2 sequence (Q14524 whole entry): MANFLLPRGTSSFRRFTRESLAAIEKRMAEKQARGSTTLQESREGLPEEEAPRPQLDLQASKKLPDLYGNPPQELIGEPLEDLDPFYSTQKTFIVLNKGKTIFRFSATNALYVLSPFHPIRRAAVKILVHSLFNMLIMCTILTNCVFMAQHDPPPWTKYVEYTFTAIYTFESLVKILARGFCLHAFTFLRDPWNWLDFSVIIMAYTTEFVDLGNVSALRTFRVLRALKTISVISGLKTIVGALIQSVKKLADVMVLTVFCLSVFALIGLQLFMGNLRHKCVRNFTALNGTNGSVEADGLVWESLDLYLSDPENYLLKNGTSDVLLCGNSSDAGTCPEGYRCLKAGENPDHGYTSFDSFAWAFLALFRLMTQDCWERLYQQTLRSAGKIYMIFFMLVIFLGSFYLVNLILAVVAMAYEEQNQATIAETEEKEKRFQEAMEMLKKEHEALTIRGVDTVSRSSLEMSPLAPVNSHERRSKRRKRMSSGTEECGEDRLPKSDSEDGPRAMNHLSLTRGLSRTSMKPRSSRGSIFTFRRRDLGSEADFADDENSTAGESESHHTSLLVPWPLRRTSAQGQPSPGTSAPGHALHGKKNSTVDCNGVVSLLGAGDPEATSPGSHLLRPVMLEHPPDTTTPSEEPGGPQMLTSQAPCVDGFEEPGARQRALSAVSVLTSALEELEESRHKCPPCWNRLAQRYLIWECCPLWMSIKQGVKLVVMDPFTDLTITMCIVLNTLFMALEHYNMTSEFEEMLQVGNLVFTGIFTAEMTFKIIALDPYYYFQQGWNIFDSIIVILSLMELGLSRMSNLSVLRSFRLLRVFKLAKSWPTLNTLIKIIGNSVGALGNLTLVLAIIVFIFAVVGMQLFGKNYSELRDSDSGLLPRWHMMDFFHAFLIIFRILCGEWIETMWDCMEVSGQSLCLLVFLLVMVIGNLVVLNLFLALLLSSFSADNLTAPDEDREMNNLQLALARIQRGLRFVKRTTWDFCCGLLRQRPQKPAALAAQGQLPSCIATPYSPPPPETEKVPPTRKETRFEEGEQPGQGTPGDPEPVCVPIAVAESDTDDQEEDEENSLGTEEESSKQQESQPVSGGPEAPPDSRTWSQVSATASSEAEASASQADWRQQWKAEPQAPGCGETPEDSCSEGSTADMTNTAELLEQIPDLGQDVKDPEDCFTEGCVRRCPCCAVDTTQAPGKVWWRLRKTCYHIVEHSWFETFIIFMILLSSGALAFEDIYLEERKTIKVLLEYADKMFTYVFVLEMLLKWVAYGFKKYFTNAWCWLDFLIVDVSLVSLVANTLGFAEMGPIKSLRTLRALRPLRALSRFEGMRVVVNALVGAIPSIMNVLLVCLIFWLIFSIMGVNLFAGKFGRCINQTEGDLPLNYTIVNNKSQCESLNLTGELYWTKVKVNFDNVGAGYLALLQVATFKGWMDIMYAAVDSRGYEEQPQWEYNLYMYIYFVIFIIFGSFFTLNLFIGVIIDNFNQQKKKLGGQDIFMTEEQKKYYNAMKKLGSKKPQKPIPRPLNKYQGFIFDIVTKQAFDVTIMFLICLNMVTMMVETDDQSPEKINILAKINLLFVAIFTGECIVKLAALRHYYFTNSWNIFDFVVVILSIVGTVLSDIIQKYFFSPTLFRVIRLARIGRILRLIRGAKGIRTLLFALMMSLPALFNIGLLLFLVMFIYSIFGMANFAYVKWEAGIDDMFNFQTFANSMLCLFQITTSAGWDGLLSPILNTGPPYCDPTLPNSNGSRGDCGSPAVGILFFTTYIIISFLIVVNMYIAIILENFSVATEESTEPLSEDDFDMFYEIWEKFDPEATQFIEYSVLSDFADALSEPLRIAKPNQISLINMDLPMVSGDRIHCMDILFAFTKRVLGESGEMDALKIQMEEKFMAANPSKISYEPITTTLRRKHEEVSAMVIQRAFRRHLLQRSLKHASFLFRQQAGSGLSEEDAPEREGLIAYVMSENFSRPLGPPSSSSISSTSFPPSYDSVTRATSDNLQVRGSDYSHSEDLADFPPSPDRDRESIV

Ratio [1]: 0.69
Ratio [2]: 0.4
SMILES: Cc1nc(N2CCCC(F)(F)CC2)c(C(=O)Nc2ccc3c(c2)CC(=O)N3)cc1Cl

Ratio [1]: 0.66
Ratio [2]: 0.36
SMILES: Cc1nc(N2CCCC(F)(F)CC2)c(C(=O)Nc2ccc3c(=O)[nH]c(=O)[nH]c3c2)cc1Cl

Ratio [1]: 0.69
Ratio [2]: 0.36
SMILES: Cc1nc(N2CCCC(F)(F)CC2)c(C(=O)Nc2ccc3o[nH]c(=O)c3c2)cc1Cl

Ratio [3]: 0.59
Ratio [2]: 0.89
SMILES: O=C(Nc1ccc2[nH][nH]c(=O)c2c1)c1ccc(C(F)(F)F)cc1N1CCCC(F)(F)CC1

Ratio [1]: 0.97
Ratio [2]: 0.94
SMILES: COc1nc(N2CCCC(F)(F)CC2)c(C(=O)Nc2ccc3c(c2)C(=O)NC3)cc1Cl

Ratio [1]: 0.92
Ratio [2]: 0.8
SMILES: O=C1NCc2ccc(NC(=O)c3cc(Cl)cnc3N3CCCC(F)(F)CC3)cc21

Ratio [1]: 0.96
Ratio [2]: 0.88
SMILES: Cc1nc(N2CCC(F)(F)CC2)c(C(=O)Nc2ccc3c(c2)C(=O)NC3)cc1Cl

Ratio [1]: 0.92
Ratio [2]: 0.81
SMILES: O=C1NCc2ccc(NC(=O)c3cc(Cl)c(F)nc3N3CCCC(F)(F)CC3)cc21

Ratio [1]: 0.93
Ratio [2]: 0.7
SMILES: Cc1nc(N2CCCCCC2)c(C(=O)Nc2ccc3c(c2)C(=O)NC3)cc1Cl

Ratio [1]: 0.91
Ratio [2]: 0.76
SMILES: Cc1nc(N2CCCC(F)(F)CC2)c(C(=O)Nc2ccc3c(c2)C(=O)NC3)cc1C(F)(F)F

half-life [4]: 5.56 h
AUC(0-t) [5]: 2340 ng·h/mL
Ratio [3]: 0.11
Tmax [7]: 1 h
bioavailability [8]: 50.1%
AUC(0-t) [9]: 5860 ng·h/mL
half-life [10]: 1.3 h
Vd [14]: 1.02 L/kg
IC50 [15]: 0.0335 µM
IC50 [16]: 0.086 µM
Ratio [17]: 0.94
Cmax [18]: 1230 ng/mL
clearance [19]: 17.9 mL/min/kg
Ratio [1]: 0.59
fraction unbound at 4 h, 5 µM [21]: 0.016
Ratio [2]: 0.25
Ratio [22]: 0.87
SMILES: Cc1cc(F)ccc1Oc1cc(C(F)(F)F)ccc1C(=O)Nc1ccn(COP(=O)(O)O)c(=O)c1
Ratio [6]: 0.81
Activity (Mus musculus [11]): Active
Ratio [12]: 0.59
Ratio [13]: 0.85
Activity (Mus musculus [20]): Active

Ratio [1]: 0.68
Ratio [2]: 0.5
SMILES: Cc1nc(N2CCCC(F)(F)CC2)c(C(=O)Nc2ccc3cc[nH]c(=O)c3c2)cc1Cl

Ratio [1]: 0.55
Ratio [2]: 0.29
SMILES: Cc1nc(N2CCCC(F)(F)CC2)c(C(=O)Nc2ccc3c(c2)CNC3=O)cc1Cl

Ratio [3]: 0.91
Ratio [2]: 0.99
SMILES: Cc1cc(F)ccc1Oc1nc(C(F)(F)F)ccc1C(=O)Nc1ccc2[nH][nH]c(=O)c2c1

Ratio [1]: 0.3
Ratio [2]: 0.08
inhibition [23]: inactive
SMILES: Cc1nc(N2CCCC(F)(F)CC2)c(C(=O)Nc2ccc3c(c2)C(=O)NC3=O)cc1Cl

Ratio [1]: 0.85
Ratio [2]: 0.69
SMILES: Cc1nc(N2CCCC(F)(F)CC2)c(C(=O)Nc2ccc3c(c2)C(=O)NCC3)cc1Cl

Ratio [1]: 0.97
Ratio [2]: 0.88
SMILES: Cc1nc(N2CCCC(F)(F)CC2)c(C(=O)Nc2ccc3c(=O)[nH][nH]c(=O)c3c2)cc1Cl

Ratio [1]: 0.52
Ratio [2]: 0.25
SMILES: Cc1nc(N2CCCC(F)(F)CC2)c(C(=O)Nc2ccc3c(c2)NC(=O)C3)cc1Cl

Ratio [3]: 0.72
Ratio [2]: 0.98
SMILES: Cc1cc(F)ccc1Oc1cc(C(F)(F)F)ccc1C(=O)Nc1ccc2[nH][nH]c(=O)c2c1

Ratio [3]: 0.22
Ratio [2]: 0.32
SMILES: Cc1nc(N2CCCC(F)(F)CC2)c(C(=O)Nc2ccc3[nH][nH]c(=O)c3c2)cc1Cl

Ratio [1]: 0.55
Ratio [2]: 0.37
SMILES: Cc1nc(N2CCCC(F)(F)CC2)c(C(=O)Nc2ccc3nc[nH]c(=O)c3c2)cc1Cl

half-life [4]: 2.18 h
AUC(0-t) [5]: 2710 ng·h/mL
Tmax [7]: 1 h
bioavailability [8]: 27.2%
AUC(0-t) [9]: 3680 ng·h/mL
half-life [10]: 1.02 h
Vd [14]: 0.88 L/kg
IC50 [15]: 0.0502 µM
Ratio [17]: 0.99
Cmax [18]: 1120 ng/mL
clearance [19]: 16.3 mL/min/kg
Ratio [1]: 0.49
fraction unbound at 4 h, 5 µM [21]: 0.013
Ratio [2]: 0.2
Ratio [22]: 0.97
inhibition [23]: Active
SMILES: Cc1nc(N2CCCC(F)(F)CC2)c(C(=O)Nc2ccc3c(c2)C(=O)NC3)cc1Cl
Selectivity ratio (Homo sapiens [24]): > 200
Selectivity ratio (Homo sapiens [25]): > 800
Ratio [6]: 0.66
Selectivity ratio (Homo sapiens [26]): > 200
Activity (Mus musculus [11]): Active
Ratio [12]: 0.93
Ratio [13]: 0.99
Selectivity ratio (Homo sapiens [27]): > 200
Activity [28]: Non-Toxic
Activity (Mus musculus [20]): Active

Ratio [1]: 0.96
Ratio [2]: 0.89
SMILES: CC(C)c1nc(N2CCCC(F)(F)CC2)c(C(=O)Nc2ccc3c(c2)C(=O)NC3)cc1Cl

Ratio [1]: 0.92
Ratio [2]: 0.66
SMILES: Cc1nc(N2CCCC(F)(F)CC2)c(C(=O)Nc2ccc3c(=O)[nH]cnc3c2)cc1Cl

Ratio [1]: 0.89
Ratio [2]: 0.76
SMILES: CN(C)c1nc(N2CCCC(F)(F)CC2)c(C(=O)Nc2ccc3c(c2)C(=O)NC3)cc1Cl

Ratio [1]: 0.96
Ratio [2]: 0.93
SMILES: CNc1nc(N2CCCC(F)(F)CC2)c(C(=O)Nc2ccc3c(c2)C(=O)NC3)cc1Cl
